Measurements as given in ChEMBL document CHEMBL5143635, “Synthesis and biological evaluation of artemisinin derivatives as potential MS agents” (Bioorg Med Chem Lett, 2022).
Active and inactive are the calls of the source. The rule behind the calls is not given here.

Experiments:
[1] = Toxicity in MOG 35-55 residues/pertussis toxin-immunized autoimmune encephalomyelitis C57BL/6 mouse model assessed as change in body weight at 100 mg/kg,po administered daily from day 3 measured for 21 days; assay type: organism-based; conditions: in vivo, 504 h, time 21 day
[2] = tested on: Mus musculus; assay: Immunosuppressive activity in MOG 35-55 residues/pertussis toxin-immunized autoimmune encephalomyelitis C57BL/6 mouse model assessed as suppression of disease progression by measuring clinical cumulative score at 100 mg/kg,po administered daily from day 3 measured for 21 days; assay type: functional, organism-based; conditions: time 21.0 day
[3] = Inhibition of Th1 cells differentiation in C57BL/6 mouse spleen CD4+ve Th cells assessed as decrease in IFNgamma production at 10 uM measured after 4 days by flow cytometry analysis (reference value: 41%); assay type: functional; conditions: C57BL/6, CD4+ve Th, 96 h, time 4 day
[4] = Inhibition of Th17 cells differentiation in C57BL/6 mouse spleen CD4+ve Th cells assessed as decrease in IL-17A production at 10 uM measured after 4 days by flow cytometry analysis (reference value: 28%); assay type: functional; conditions: C57BL/6, CD4+ve Th, 96 h, time 4 day
[5] = tested on: CD4+ve Th; assay: Inhibition of Th17 cells differentiation in C57BL/6 mouse spleen CD4+ve Th cells assessed as decrease in IL-17A production at high concentrations measured after 4 days by flow cytometry analysis; assay type: functional, cell-based; conditions: time 4.0 day
[6] = Inhibition of Th17 cells differentiation in C57BL/6 mouse spleen CD4+ve Th cells assessed as decrease in IL-17A production at 10 uM measured after 4 days by flow cytometry analysis; assay type: functional; conditions: C57BL/6, CD4+ve Th, 96 h, time 4 day
[7] = Inhibition of Th17 cells differentiation in C57BL/6 mouse spleen CD4+ve Th cells assessed as decrease in IL-17A production at 10 uM measured after 4 days by flow cytometry analysis (reference value: 23%); assay type: functional; conditions: C57BL/6, CD4+ve Th, 96 h, time 4 day

| Structure (SMILES) | inhibition [5] | inhibition at 10 µM [6] | other results |
| --- | --- | --- | --- |
| C[C@H]1[C@@H](OC(=O)CCCC[C@H]2CCSS2)O[C@@H]2O[C@@]3(C)CC[C@H]4[C@H](C)CC[C@@H]1[C@@]24OO3 |  |  | Activity [1]: Toxic; Activity [2]: Active; inhibition at 10 µM [3]: 3%; inhibition at 10 µM [4]: 8% |
| C[C@@H]1CC[C@H]2C(C)(C)[C@@H](OC(=O)Nc3ccc(OC(F)(F)F)cc3)O[C@@H]3O[C@@]4(C)CC[C@@H]1[C@]32OO4 | Active | < 6% |  |
| C[C@@H]1CC[C@H]2[C@@](C)(F)[C@@H](OC(=O)Nc3ccc(OC(F)(F)F)cc3)O[C@@H]3O[C@@]4(C)CC[C@@H]1[C@]32OO4 | Active | < 6% |  |
| C[C@@H]1CC[C@H]2[C@@](C)(Cl)[C@@H](OC(=O)Nc3ccc(OC(F)(F)F)cc3)O[C@@H]3O[C@@]4(C)CC[C@@H]1[C@]32OO4 | Active | < 6% |  |
| C[C@H]1[C@@H](S)O[C@@H]2O[C@@]3(C)CC[C@H]4[C@H](C)CC[C@@H]1[C@@]24OO3 |  |  | inhibition at 10 µM [7]: 12% |
| C[C@H]1[C@@H](SC(=O)Nc2ccc(OC(F)(F)F)cc2)O[C@@H]2O[C@@]3(C)CC[C@H]4[C@H](C)CC[C@@H]1[C@@]24OO3 | Active | < 6% |  |
| C[C@H]1[C@@H](SC(=O)CCCC[C@H]2CCSS2)O[C@@H]2O[C@@]3(C)CC[C@H]4[C@H](C)CC[C@@H]1[C@@]24OO3 | Active | < 6% |  |
